Here are results for 28 molecules from patent US8455658B2, “Thiazole and thiadiazole compounds for inflammation and immune-related uses” (Synta Pharmaceuticals Corp., priority 2006, dated 2013).

What is called IC50 is the concentration needed to halve the response being measured. Read a low IC50 as greater potency.

The subject of this experiment is IL-2 production. Description: Inhibition of IL-2 production in PHA-activated Jurkat cells (ELISA). Type of experiment: cell-based. The note with it: Homo sapiens, Jurkat, 20 h, PHA 2.5 μg/mL, IL-2 ELISA. The protocol: Jurkat cells were placed in a 96 well plate (0.5 million cells per well in 1% FBS medium) then a test compound of this invention was added at different concentrations. After 10 minutes, the cells were activated with PHA (final concentration 2.5 μg/mL) and incubated for 20 hours at 37° C. under CO2. The final volume was 200 μL. Following incubation, the cells were centrifuged and the supernatants collected and stored at −70° C. prior to assaying for IL-2 production. A commercial ELISA kit (IL-2 Eli-pair, Diaclone Research, Besancon, France) was used to detect production of IL-2, from which dose response curves were obtained.

`CCOC(CNC(=O)c1nc(NC(=O)c2c(F)cccc2F)sc1-c1cccc(C(F)(F)F)c1)OCC` [Compound 98, N-(2,2-diethoxyethyl)-2-(2,6-difluorobenzamido)-5-(3-(trifluoromethyl)phenyl)thiazole-4-carboxamide] came in with an IC50 greater than 1 µM.
For `O=C(Nc1nc(-c2cc[nH]n2)c(-c2cccc(C(F)(F)F)c2)s1)c1c(F)cccc1F` [Compound 100, N-(4-(1H-Pyrazol-3-yl)-5-(3-(trifluoromethyl)phenyl)thiazol-2-yl)-2,6-difluorobenzamide] the value was 0.2 to 0.5 µM; for `O=C(Nc1nc(Cl)c(-c2cccc(C(F)(F)F)c2)s1)c1c(F)cccc1F` [Compound 103, N-(4-Chloro-5-(3-(trifluoromethyl)phenyl)thiazol-2-yl)-2,6-difluorobenzamide], 0.2 to 0.5 µM.
For `O=C(Nc1nc(-c2ccon2)c(-c2cccc(C(F)(F)F)c2)s1)c1c(F)cccc1F` [Compound 106, 2,6-Difluoro-N-(4-(isoxazol-3-yl)-5-(3-(trifluoromethyl)phenyl)thiazol-2-yl)benzamide] the value was 0.1 to 0.2 µM; for `O=C(Nc1nc(-c2ccccn2)c(-c2cccc(C(F)(F)F)c2)s1)c1c(F)cccc1F` [Compound 107, 2,6-Difluoro-N-(4-(pyridin-2-yl)-5-(3-(trifluoromethyl)phenyl)thiazol-2-yl)benzamide], less than 0.03 µM.
For `COc1ccc(-c2nc(NC(=O)c3c(F)cccc3F)sc2-c2cccc(C(F)(F)F)c2)cc1OC` [Compound 109, N-(4-(3,4-Dimethoxyphenyl)-5-(3-(trifluoromethyl)phenyl)thiazol-2-yl)-2,6-difluorobenzamide] the value was greater than 1 µM; for `CN(C)c1ccc(-c2nc(NC(=O)c3c(F)cccc3F)sc2-c2cccc(C(F)(F)F)c2)cc1` [Compound 110, N-(4-(4-(Dimethylamino)phenyl)-5-(3-(trifluoromethyl)phenyl)thiazol-2-yl)-2,6-difluorobenzamide], greater than 1 µM.
As to `Cc1cnccc1C(=O)Nc1nc(C(=O)O)c(-c2cccc(C(F)(F)F)c2)s1` [Compound 112, 2-(3-Methylisonicotinamido)-5-(3-(trifluoromethyl)phenyl)thiazole-4-carboxylic acid], the IC50 is greater than 1 µM.
`COC(=O)c1cccc(-c2sc(NC(=O)c3c(F)cccc3F)nc2C(=O)OC)c1` [Compound 114, Methyl 2-(2,6-difluorobenzamido)-5-(3-(methoxycarbonyl)phenyl)thiazole-4-carboxylate]: the IC50 is greater than 1 µM.
For `CCOC(=O)c1nc(-c2sc(NC(=O)c3c(F)cccc3F)nc2C)cs1` [Compound 114a, Ethyl 2′-(2,6-difluorobenzamido)-4′-methyl-4,5′-bithiazole-2-carboxylate] the value was greater than 1 µM; for `Cc1nc(-c2sc(NC(=O)c3c(F)cccc3F)nc2C)cs1` [Compound 114b, N-(2,4′-Dimethyl-4,5′-bithiazol-2′-yl)-2,6-difluorobenzamide], greater than 1 µM; for `Cc1nc(C(=O)Nc2c(F)cccc2F)sc1-c1cccc(-c2ncco2)c1` [Compound 116, N-(2,6-difluorophenyl)-4-methyl-5-(3-(oxazol-2-yl)phenyl)thiazole-2-carboxamide], 0.05 to 0.1 µM.
For `COC(=O)c1cccc(-c2sc(C(=O)Nc3c(F)cccc3F)nc2C)c1` [Compound 117, methyl 3-(2-(2,6-difluorophenylcarbamoyl)-4-methylthiazol-5-yl)benzoate], the IC50 fell in the range of 0.1 to 0.2 µM.
For `Cc1nc(C(=O)Nc2c(F)cccc2F)sc1-c1cccc(-c2nnco2)c1` [Compound 118, 5-(3-(1,3,4-oxadiazol-2-yl)phenyl)-N-(2,6-difluorophenyl)-4-methylthiazole-2-carboxamide], the IC50 was 0.2 to 0.5 µM.
Next, `Cc1nc(C(=O)Nc2c(F)cccc2F)sc1-c1cc(C(F)(F)F)ccc1Cl` [Compound 119, 5-(2-chloro-5-(trifluoromethyl)phenyl)-N-(2,6-difluorophenyl)-4-methylthiazole-2-carboxamide]: 0.2 to 0.5 µM.
Next, `Cc1cnccc1NC(=O)c1nc(C)c(-c2cccc(C(F)(F)F)c2)s1` [Compound 120, 4-methyl-N-(3-methylpyridin-4-yl)-5-(3-(trifluoromethyl)phenyl)thiazole-2-carboxamide]: greater than 1 µM; `Cc1ccc(-c2ncco2)cc1-c1ncc(C(=O)Nc2c(F)cccc2F)s1` [Compound 121, N-(2,6-difluorophenyl)-2-(2-methyl-5-(oxazol-2-yl)phenyl)thiazole-5-carboxamide]: 0.1 to 0.2 µM.
`Cc1ccc(-c2nccs2)cc1-c1ncc(C(=O)Nc2c(F)cccc2F)s1` [Compound 122, N-(2,6-difluorophenyl)-2-(2-methyl-5-(thiazol-2-yl)phenyl)thiazole-5-carboxamide] yielded an IC50 of 0.03 to 0.05 µM.
For `O=C(Nc1c(F)cccc1F)c1cnc(-c2cccc(C(F)(F)F)c2)s1` [Compound 123, N-(2,6-difluorophenyl)-2-(3-(trifluoromethyl)phenyl)thiazole-5-carboxamide], the IC50 was greater than 1 µM.
Molecule `O=C(Nc1c(F)cccc1F)c1cnc(-c2cccc(-c3ncco3)c2)s1` [Compound 124, N-(2,6-difluorophenyl)-2-(3-(oxazol-2-yl)phenyl)thiazole-5-carboxamide] yielded an IC50 greater than 1 µM.
For the molecule `O=C(Nc1c(F)cccc1F)c1cnc(-c2cc(-c3nccs3)ccc2Cl)s1` [Compound 125, 2-(2-chloro-5-(thiazol-2-yl)phenyl)-N-(2,6-difluorophenyl)thiazole-5-carboxamide], the IC50 fell in the range of 0.2 to 0.5 µM.
For `COc1ncc(Cl)cc1-c1ncc(C(=O)Nc2c(F)cccc2F)s1` [Compound 126, 2-(5-chloro-2-methoxypyridin-3-yl)-N-(2,6-difluorophenyl)thiazole-5-carboxamide] the value was greater than 1 µM; for `Cc1ccc(-c2nnco2)cc1-c1ncc(C(=O)Nc2c(F)cccc2F)s1` [Compound 128, N-(2,6-difluorophenyl)-2-(2-methyl-5-(1,3,4-oxadiazol-2-yl)phenyl)thiazole-5-carboxamide], 0.2 to 0.5 µM; for `O=C(Nc1c(F)cccc1F)c1ncc(-c2cc(C(F)(F)F)ccc2Cl)s1` [Compound 129, 5-(2-chloro-5-(trifluoromethyl)phenyl)-N-(2,6-difluorophenyl)thiazole-2-carboxamide], less than 0.03 µM.
Next, `O=C(Nc1c(F)cccc1F)c1ncc(-c2cccc(C(F)(F)F)c2)s1` [Compound 130, N-(2,6-difluorophenyl)-5-(3-(trifluoromethyl)phenyl)thiazole-2-carboxamide]: 0.1 to 0.2 µM; `O=C(Nc1c(F)cccc1F)c1ncc(-c2cccc(-c3ncco3)c2)s1` [Compound 131, N-(2,6-difluorophenyl)-5-(3-(oxazol-2-yl)phenyl)thiazole-2-carboxamide]: 0.05 to 0.1 µM.
For `Cc1cnccc1NC(=O)c1ncc(-c2cc(-c3ncco3)ccc2C)s1` [Compound 132, 5-(2-methyl-5-(oxazol-2-yl)phenyl)-N-(3-methylpyridin-4-yl)thiazole-2-carboxamide] the value was greater than 1 µM; for `Cc1cnccc1NC(=O)c1ncc(-c2cc(-c3nccs3)ccc2C)s1` [Compound 133, 5-(2-methyl-5-(thiazol-2-yl)phenyl)-N-(3-methylpyridin-4-yl)thiazole-2-carboxamide], greater than 1 µM.
